In PubChem BioAssay (NCI):
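Method: 48-hour compound exposure of cells in 96-well plates, five concentrations, linear interpolation of endpoints. The concentration for full growth arrest is given as TGI.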

Tests used:
Test in all cases: NCI tumour cell line growth inhibition, 48 h
[1] = system: OVCAR-8 ovarian
[2] = system: KM20L2 colon
[3] = system: OVCAR-4 ovarian
[4] = system: HOP-62 NSCLC
[5] = system: COLO 205 colon
[6] = system: HL-60(TB) leukemia
[7] = system: 786-0 renal
[8] = system: OVCAR-5 ovarian
[9] = system: M14 melanoma
[10] = system: SK-OV-3 ovarian
[11] = system: SF-295 CNS
[12] = system: M19-MEL melanoma
[13] = system: LXFL 529 NSCLC
[14] = system: DMS 114 small cell lung
[15] = system: LOX IMVI melanoma
[16] = system: UACC-257 melanoma
[17] = system: NCI-H23 lung
[18] = system: SK-MEL-5 melanoma
[19] = system: HOP-92 NSCLC
[20] = system: NCI-H226 lung
[21] = system: CAKI-1 renal
[22] = system: SF-539 CNS
[23] = system: EKVX NSCLC
[24] = system: IGROV1 ovarian
[25] = system: UACC-62 melanoma
[26] = system: SF-268 CNS
[27] = system: RXF-631 renal
[28] = system: XF 498 CNS
[29] = system: RPMI-8226 leukemia
[30] = system: HT29 colon
[31] = system: SNB-78 CNS
[32] = system: HCT-15 colon
[33] = system: A549 NSCLC
[34] = system: CCRF-CEM leukemia
[35] = system: TK-10 renal
[36] = system: SNB-19 CNS
[37] = system: DMS 273 small cell lung
[38] = system: ACHN renal
[39] = system: A498 renal
[40] = system: SK-MEL-2 melanoma
[41] = system: MOLT-4 leukemia
[42] = system: SNB-75 CNS
[43] = system: UO-31 renal
[44] = system: SK-MEL-28 melanoma
[45] = system: HCC-2998 colon
[46] = system: OVCAR-3 ovarian
[47] = system: HOP-18 NSCLC
[48] = system: K-562 leukemia
[49] = system: SN12C renal
[50] = system: NCI-H522 lung
[51] = system: MALME-3M melanoma
[52] = system: KM12 colon
[53] = system: DLD-1 colon
[54] = system: U251 CNS

For `Cc1ccc(Nc2nc3c(s2)C(=O)c2ccccc2C3=O)cc1`, the TGI [1] was 5.07 µM, the TGI [2] was 38.9 µM and the TGI [3] was 2.89 µM. The TGI [4] was 20 µM, the TGI [5] was 26.9 µM and the TGI [6] was 0.602 µM. The TGI [7] was 3.37 µM, the TGI [8] was 3.5 µM and the TGI [9] was 3.25 µM. For the same compound, the TGI [10] was 40.1 µM, the TGI [11] was 2.99 µM and the TGI [12] was 1.05 µM. The TGI [13] was 3 µM, the TGI [14] was 3.28 µM and the TGI [15] was 3.11 µM. For the same compound, the TGI [16] was 3.2 µM, the TGI [17] was 4.33 µM and the TGI [18] was 3.43 µM. The TGI [19] was 14.3 µM, the TGI [20] was 33.9 µM and the TGI [21] was 3 µM. It also gave a TGI [22] of 17.7 µM, a TGI [23] of 16 µM and a TGI [24] of 3.73 µM. For the same compound, the TGI [25] was 3.92 µM, the TGI [26] was 5.66 µM and the TGI [27] was 3.8 µM. For the same compound, the TGI [28] was 3.76 µM, the TGI [29] was 3.74 µM and the TGI [30] was 11.2 µM. The TGI [31] was 5.82 µM, the TGI [32] was 4.29 µM and the TGI [33] was 4.86 µM. It also gave a TGI [34] of 5.04 µM, a TGI [35] of 18.9 µM and a TGI [36] of 3.33 µM. The TGI [37] was 3.75 µM, the TGI [38] was 3.21 µM and the TGI [39] was 30.9 µM. It also gave a TGI [40] of 3.94 µM, a TGI [41] of 3.83 µM and a TGI [42] of 5.03 µM. The TGI [43] was 4.12 µM, the TGI [44] was 2.99 µM and the TGI [45] was 3.58 µM. The TGI [46] was 4.87 µM, the TGI [47] was 3.19 µM and the TGI [48] was 7.19 µM. The TGI [49] was 3.4 µM, the TGI [50] was 3.25 µM and the TGI [51] was 3.39 µM. For the same compound, the TGI [52] was 3.44 µM, the TGI [53] was 4.26 µM and the TGI [54] was 3.42 µM.
